The test has as its target recombinant human GPR52 (Homo sapiens, UniProt Q9Y2T5). In words: HTRF cAMP assay, GPR52 activity (Example A). It is filed as cell-based. As for the experimental part: Compounds of Formula I were assessed for their ability to modulate GPR52 activity. HTRF CAMP assays were performed using a commercially available assay kit (CAMP Gs HiRange HTRF®, CisBio). Controls and compounds were solubilized in DMSO and 62.5 nanoliters of the diluted compounds were transferred into 384-well NBS assay plates via acoustic or precision low-volume dispensing. Compounds were further diluted to 1× with the addition of 20,000 cells per well. Flp-In™—CHO cells that stably express recombinant human GPR52 were used in the assay.
Cells were harvested with cell stripper and resuspended in stimulation buffer. After thirty minutes incubation at room temperature, detection reagents were added to each well. Plates were then incubated for an additional 30 minutes at room temperature. CAMP produced by the cells during the first incubation period competes with d2-labeled CAMP for binding to an anti-cAMP monoclonal antibody labeled with europium cryptate. The measured signal was inversely proportional to the concentration of cAMP produced by the cells and this signal was quantified using a PHERAstar® multi-mode plate reader.
Dose-response curves were generated from the HTRF counts that have been transformed based on a CAMP referenced curve, and then normalized to the positive control. EC50 values were obtained using a nonlinear regression curve-fitting program. […] The Emax (Table 13) is the maximum amount of cAMP (nM) produced by incubation of the cells with 10 μM or 31.6 μM of a test compound. The compound is defined by the top plateau of the sigmoid curve fit. The curve is then normalized to a control compound, in this case 4-(3-(3-fluoro-5-(trifluoromethyl)benzyl)-5-methyl-4,5-dihydro-1H-1,2,4-triazol-1-yl)-2-methylbenzamide (Tokumaru, K., et al., “Design, synthesis, and pharmacological evaluation of 4-azolyl-benzamide derivatives as novel GPR52 agonists”, Bioorganic & Medicinal Chemistry, Volume 25, Issue 12, June 2017, pages 3098-3115), and expressed as a percentage of the Emax of that control compound.
In general terms: Time-resolved FRET reads energy transfer from a long-lived donor to a nearby acceptor.

Where [1] appears, read: average EC50 (n=1 to 15), Flp-In-CHO cells stably expressing recombinant human GPR52, cAMP HTRF, read-out: EC50 (N=).
The mark [2] stands for this setting: maximum cAMP at 10 μM or 31.6 μM test compound, as percentage of Emax of control compound 4-(3-(3-fluoro-5-(trifluoromethyl)benzyl)-5-methyl-4,5-dihydro-1H-1,2,4-triazol-1-yl)-2-methylbenzamide.

Like-named read-outs stand apart in the source and are kept apart here.

One may read the EC50 as the concentration giving half of the maximal effect. By Emax is commonly meant the greatest response seen or fitted, relative to the assay's reference.

recombinant human GPR52, sequence (Q9Y2T5 whole entry): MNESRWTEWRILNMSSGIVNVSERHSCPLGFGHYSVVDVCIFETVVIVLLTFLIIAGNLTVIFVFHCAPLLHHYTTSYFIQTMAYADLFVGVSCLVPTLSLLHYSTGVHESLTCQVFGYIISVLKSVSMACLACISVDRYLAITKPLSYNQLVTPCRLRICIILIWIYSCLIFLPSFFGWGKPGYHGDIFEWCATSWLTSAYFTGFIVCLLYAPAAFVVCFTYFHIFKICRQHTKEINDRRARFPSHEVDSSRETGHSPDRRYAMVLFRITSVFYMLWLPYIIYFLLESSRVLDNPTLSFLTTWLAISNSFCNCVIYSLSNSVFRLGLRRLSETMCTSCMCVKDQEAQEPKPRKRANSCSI

With `CCc1cc(-c2cc(Oc3cnc4c(c3)c(F)nn4C)ccn2)ccc1C(N)=O` [Example 130, 2-ethyl-4-(4-((3-fluoro-1-methyl-1H-pyrazolo[3,4-b]pyridin-5-yl)oxy)pyridin-2-yl)benzamide], under setting [1], the EC50 is 101 to 1000 nM. For the same molecule, under setting [2], the maximum response (Emax) was 137%.
As to `CCc1cc(-c2cc(Oc3ccc4c(C(F)(F)F)nn(C)c4c3)ccn2)ccc1C(=O)NC` [Example 64, 2-ethyl-N-methyl-4-(4-((1-methyl-3-(trifluoromethyl)-1H-indazol-6-yl)oxy)pyridin-2-yl)benzamide], the half-maximal effective concentration (EC50) under setting [1] was 101 to 1000 nM. For the same molecule, the Emax under setting [2] was found to be 81%.
Regarding `CCc1cc(-c2cc(Oc3cnc4ccc(Cl)cc4c3)ccn2)ccc1C(N)=O` [Example 110, 4-(4-((6-chloroquinolin-3-yl)oxy)pyridin-2-yl)-2-ethylbenzamide], the EC50 under setting [1] was in the range of 101 to 1000 nM. Also, the maximal effect (Emax) under setting [2] is 137%.
On to `CCc1cc(-c2cccc(Oc3cnc4c(C)nn(C)c4c3)c2)ccc1C(=O)NC` [Example 66, 3′-((1,3-dimethyl-1H-pyrazolo[4,3-b]pyridin-6-yl)oxy)-3-ethyl-N-methyl-[1,1′-biphenyl]-4-carboxamide], for which the concentration for a half-maximal effect (EC50) under setting [1] is 101 to 1000 nM. Besides, the Emax under setting [2] is 87%.
With `CCc1cc(-c2cc(Oc3ccc4ncc(C)cc4c3)ccn2)ccc1C(N)=O` [Example 107, 2-ethyl-4-(4-((3-methylquinolin-6-yl)oxy)pyridin-2-yl)benzamide], the EC50 under setting [1] was 25 to 100 nM. The Emax under setting [2] was determined as 146%.
As to `Cc1cc(-c2cc(Oc3ccc4c(c3)c(C)nn4C)ccn2)ccc1C(N)=O` [drawing 5], for the setting “comparison of position of the nitrogen in the pyridine ring relative to the oxygen linker, read-out: Activity EC50”, the EC50 was 89 nM.
In the case of `CCc1cc(-c2cc(Oc3cnc4c(C)nn(C)c4c3)cc(N)n2)ccc1C(N)=O` [Example 16, 4-(6-amino-4-((1,3-dimethyl-1H-pyrazolo[4,3-b]pyridin-6-yl)oxy)pyridin-2-yl)-2-ethylbenzamide], the EC50 under setting [1] was in the range of 101 to 1000 nM. The Emax under setting [2] stood at 107%.
With `Cn1ncc2ncc(Oc3ccnc(-c4ccc(C(N)=O)c(C(F)(F)F)c4)c3)cc21` [Example 33, 4-(4-((1-methyl-1H-pyrazolo[4,3-b]pyridin-6-yl)oxy)pyridin-2-yl)-2-(trifluoromethyl)benzamide], the EC50 under setting [1] lay in the range of 101 to 1000 nM. Moreover, under setting [2], the Emax came out at 90%.
For `Cc1cc(-c2cc(Oc3cnc4c(F)nn(C)c4c3)ccn2)ccc1C(N)=O` [Example 127, 4-(4-((3-fluoro-1-methyl-1H-pyrazolo[4,3-b]pyridin-6-yl)oxy)pyridin-2-yl)-2-methylbenzamide], the concentration giving a half-maximal response (EC50) under setting [1] fell in the range of 101 to 1000 nM. Moreover, under setting [2], the Emax is 116%.
With `CCc1cc(-c2cccc(Oc3cnc4c(C)nn(C)c4c3)c2)ccc1C(N)=O` [Example 32, 3′-((1,3-dimethyl-1H-pyrazolo[4,3-b]pyridin-6-yl)oxy)-3-ethyl-[1,1′-biphenyl]-4-carboxamide], the EC50 under setting [1] lay within 101 to 1000 nM. For the same molecule, under setting [2], the Emax amounted to 103%.
On the same counts, the results for `CCc1cc(-c2cc(Oc3ccc4ncc(F)cc4c3)ccn2)ccc1C(N)=O` [Example 95, 2-ethyl-4-(4-((3-fluoroquinolin-6-yl)oxy)pyridin-2-yl)benzamide] are 101 to 1000 nM and 138%.
For the molecule `CCc1cc(-c2cc(Oc3ccc4cnn(C)c4c3)ccn2)ccc1C(N)=O` [Example 2, 2-ethyl-4-{4-[(1-methyl-1H-indazol-6-yl)oxy]pyridin-2-yl}benzamide], the EC50 under setting [1] is 101 to 1000 nM. In addition, the Emax under setting [2] came to 98%.
Consider `NC(=O)c1ccc(-c2cc(Oc3ccc4cnccc4c3)ccn2)cc1Cl` [Example 82, 2-chloro-4-(4-(isoquinolin-6-yloxy)pyridin-2-yl)benzamide], for which the EC50 under setting [1] fell in the range of 101 to 1000 nM. Besides, the Emax under setting [2] worked out at 110%.
For the molecule `Cc1cc(-c2cc(Oc3cc(Cl)c4ncccc4c3)ccn2)ccc1C(N)=O` [Example 100, 4-(4-((8-chloroquinolin-6-yl)oxy)pyridin-2-yl)-2-methylbenzamide], the concentration for a half-maximal effect (EC50) under setting [1] lay in the range of 101 to 1000 nM. For the same molecule, the Emax under setting [2] was found to be 112%.
On the same counts, the results for `CCc1cc(-c2cc(Oc3cnc4ccc(F)cc4c3)ccn2)ccc1C(N)=O` [Example 104, 2-ethyl-4-(4-((6-fluoroquinolin-3-yl)oxy)pyridin-2-yl)benzamide] are 101 to 1000 nM and 110%.
Consider `Cc1cc(-c2cc(Oc3cc(F)c4cnn(C)c4c3)ccn2)ccc1C(N)=O` [Example 39, 4-(4-((4-fluoro-1-methyl-1H-indazol-6-yl)oxy)pyridin-2-yl)-2-methylbenzamide], for which, under setting [1], the EC50 is 25 to 100 nM. Further, under setting [2], the Emax turned out to be 104%.
Turning to `Cc1cc(-c2cc(Oc3ccc4c(c3)c(C)nn4C)ccn2)ccc1C(N)=O` [Example 58, 4-(4-((1,3-dimethyl-1H-indazol-5-yl)oxy)pyridin-2-yl)-2-methylbenzamide], the EC50 under setting [1] lay within 25 to 100 nM. For the same molecule, the Emax under setting [2] was 108%.
As for `Cc1cc(-c2cc(Oc3ccc4c(C)nn(C)c4c3)ccn2)ccc1C(N)=O` [Example 4, 4-(4-((1,3-dimethyl-1H-indazol-6-yl)oxy)pyridin-2-yl)-2-methylbenzamide], the EC50 by setting is: (Flp-In-CHO cells expressing human GPR52, read-out: average EC50) 83 nM; under setting [1], 25 to 100 nM. Besides, the “Emax (%)” value under setting [2] is 103%. The Emax (percentage of Emax of control compound) came to 106%.
Consider `CCc1cc(-c2cccc(Oc3ccc4cnn(C)c4c3)c2)ccc1C(N)=O` [Example 52, 3-ethyl-3′-((1-methyl-1H-indazol-6-yl)oxy)-[1,1′-biphenyl]-4-carboxamide], for which the EC50 under setting [1] was 1000 to 2000 nM. Moreover, the maximum response (Emax) under setting [2] stood at 86%.
Take `CCNC(=O)c1ccc(-c2cc(Oc3ccc4cnn(C)c4c3)ccn2)cc1C` [Example 63, N-ethyl-2-methyl-4-(4-((1-methyl-1H-indazol-6-yl)oxy)pyridin-2-yl)benzamide]: the EC50 under setting [1] lay in the range of 101 to 1000 nM. Also, under setting [2], the Emax turned out to be 70%.
Consider `CCc1cc(-c2cc(Oc3ccc4c(c3)c(F)nn4C)ccn2)ccc1C(N)=O` [Example 133, 2-ethyl-4-(4-((3-fluoro-1-methyl-1H-indazol-5-yl)oxy)pyridin-2-yl)benzamide], for which the EC50 under setting [1] lay within 101 to 1000 nM. Also, under setting [2], the Emax was 141%.
For the molecule `Cc1cc(-c2cc(Oc3cccc4c3cnn4C)ccn2)ccc1C(N)=O` [Example 7, 2-methyl-4-(4-((1-methyl-1H-indazol-4-yl)oxy)pyridin-2-yl)benzamide], the EC50 under setting [1] is 1000 to 2000 nM. Moreover, the Emax under setting [2] came to 68%.
On the same counts, the results for `Cc1cc(-c2cc(Oc3ccc4cccnc4c3)ccn2)ccc1C(N)=O` [Example 88, 2-methyl-4-(4-(quinolin-7-yloxy)pyridin-2-yl)benzamide] are 101 to 1000 nM and 67%.
For the molecule `Cn1ncc2ccc(Oc3ccnc(-c4ccc(C(N)=O)c(C(F)(F)F)c4)c3)cc21` [Example 47, 4-(4-((1-methyl-1H-indazol-6-yl)oxy)pyridin-2-yl)-2-(trifluoromethyl)benzamide], under setting [1], the EC50 was in the range of 101 to 1000 nM. Also, the maximum response (Emax) under setting [2] came out at 88%.
Take `CCc1cc(-c2cc(Oc3cc(F)c4c(C)nn(C)c4c3)ccn2)ccc1C(N)=O` [Example 38, 2-ethyl-4-(4-((4-fluoro-1,3-dimethyl-1H-indazol-6-yl)oxy)pyridin-2-yl)benzamide]: the EC50 under setting [1] was in the range of 25 to 100 nM. Under setting [2], the Emax turned out to be 104%.
Take `Cc1cc(-c2cc(Oc3ccc4cnn(C)c4c3)cc(CN)n2)ccc1C(N)=O` [Example 94, 4-(6-(aminomethyl)-4-((1-methyl-1H-indazol-6-yl)oxy)pyridin-2-yl)-2-methylbenzamide]: the EC50 under setting [1] was 101 to 1000 nM. The Emax under setting [2] was 129%.

The record behind these values is patent US20260167615A1, “COMPOUNDS AND COMPOSITIONS AS GPR52 MODULATORS” (Neurocrine Biosciences, Inc., priority 2022, published 2026).
